Assay results taken from patent publication US20150105252A1, “SUBSTITUTED PYRAZOLES AS HERBICIDES” (E I DU PONT DE NEMOURS AND COMPANY, priority 2013, published 2015).

Experiments:
oat, wild = test: Test C preemergence; format: in vivo, Avena fatua
Text: (§1) Seeds of plant species selected from blackgrass (Alopecurus myosuroides), ryegrass, Italian (Italian ryegrass, Lolium multiflorum), wheat (winter wheat, Triticum aestivum), galium (catchweed bedstraw, Galium aparine), corn (Zea mays), crabgrass, large (large crabgrass, Digitaria sanguinalis), foxtail, giant (giant foxtail, Setaria faberii), johnsongrass (Sorghum halepense), lambsquarters (Chenopodium album), morningglory (Ipomoea coccinea), nutsedge, yellow (yellow nutsedge, Cyperus esculentus), pigweed (redroot pigweed, Amaranthus retroflexus), ragweed (common ragweed, Ambrosia elation), soybean (Glycine max), barnyardgrass (Echinochloa crus-galli), oilseed rape (Brassica napus), waterhemp (common waterhemp, Amaranthus rudis), oat, wild (wild oat, Avena fatua), kochia (Kochia scoparia), Surinam grass (Brachiaria decumbens), foxtail, green (green foxtail, Setaria viridis), goosegrass (Eleusine indica), bromegrass, downy (downy bromegrass, Bromus tectorum), nightshade (eastern black nightshade, Solanum ptycanthum), cocklebur (common cocklebur, Xanthium strumarium), cupgrass, woolly (woolly cupgrass, Eriochloa villosa), bermudagrass (Cynodon dactylon), sunflower, (common oilseed sunflower, Helianthus annuus), Russian thistle (Salsola kali), and velvetleaf (Abutilon theophrasti) were planted into a blend of loam soil and sand and treated preemergence with test chemicals formulated in a non-phytotoxic solvent mixture which included a surfactant.
(§2) At the same time, plants selected from these crop and weed species and also chickweed (common chickweed, Stellaria media), canarygrass (littleseed canarygrass, Phalaris minor), and deadnettle (henbit deadnettle, Lamium amplexicaule), were planted in pots containing Redi-Earth® planting medium (Scotts Company, 14111 Scottslawn Road, Marysville, Ohio 43041) comprising spaghnum peat moss, vermiculite, wetting agent and starter nutrients and treated with postemergence applications of test chemicals formulated in the same manner. Plants ranged in height from 2 to 18 cm (1- to 4-leaf stage) for postemergence treatments. Treated plants and controls were maintained in a greenhouse for 13 to 15 days, after which time all species were compared to controls and visually evaluated. Plant response ratings, summarized in Table C, are based on a scale of 0 to 100 where 0 is no effect and 100 is complete control. A dash (-) response means no test result.

bromegrass, downy = test: Test C preemergence; format: in vivo, Bromus tectorum
Text: as §1, §2

bermudagrass = test: Test C preemergence; format: in vivo, Cynodon dactylon
Text: as §1, §2

cocklebur = test: Test C postemergence; format: in vivo, Xanthium strumarium; conditions: for Cocklebur plant response rating: scale 0 to 100
Text: as §1, §2

barley = test: Test C postemergence; format: in vivo, Hordeum vulgare
green foxtail = test: Test F preemergence; format: in vivo, Setaria viridis
Text: (§3) Seeds of plant species selected from corn (Zea mays), soybean (Glycine max), velvetleaf (Abutilon theophrasti), lambsquarters (Chenopodium album), wild poinsettia (Euphorbia heterophylla), pigweed, palmer (palmer pigweed, Amaranthus palmeri), common waterhemp (Amaranthus rudis), surinam grass (Brachiaria decumbens), large crabgrass (Digitaria sanguinalis), crabgrass, Brazil (Brazilian crabgrass, Digitaria horizontalis), fall panicum (Panicum dichotomiflorum), giant foxtail (Setaria faberii), green foxtail (Setaria viridis), goosegrass (Eleusine indica), johnsongrass (Sorghum halepense), common ragweed (Ambrosia elation), barnyardgrass (Echinochloa crus-galli), southern sandbur (Cenchrus echinatus), arrowleaf sida (Sida rhombifolia), Italian ryegrass (Lolium multiflorum), dayflower, VA (Virginia (VA) dayflower, Commelina virginica), field bindweed (Convolvulus arvensis), cocklebur (common cocklebur, Xanthium strumarium), morningglory (Ipomoea coccinea), nightshade (eastern black nightshade, Solanum ptycanthum), kochia (Kochia scoparia), yellow nutsedge (Cyperus esculentus), and hairy beggarticks (Bidens pilosa), were planted into a silt loam soil and treated preemergence with test chemicals formulated in a non-phytotoxic solvent mixture which included a surfactant.
(§4) At the same time, plants from these crop and weed species and also horseweed (Canada horseweed, Conyza canadensis), smartweed (ladysthumb smartweed, Polygonum persicaria), waterhemp_RES1, (ALS & Triazine resistant common waterhemp, Amaranthus rudis), and waterhemp_RES2, (ALS & HPPD resistant common waterhemp, Amaranthus rudis) were treated with postemergence applications of test chemicals formulated in the same manner. Plants ranged in height from 2 to 18 cm for postemergence treatments (1- to 4-leaf stage). Treated plants and controls were maintained in a greenhouse for 14 to 21 days, after which time all species were compared to controls and visually evaluated. Plant response ratings, summarized in Table F, are based on a scale of 0 to 100 where 0 is no effect and 100 is complete control. A dash (-) response means no test result.

Italian ryegrass = test: Test F preemergence; format: in vivo, Lolium multiflorum
Text: as §3, §4

morningglory = test: Test F preemergence; format: in vivo, Ipomoea coccinea
Text: as §3, §4

common ragweed = test: Test A postemergence; format: in vivo, Ambrosia elation
Method in brief: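 Greenhouse test in loam soil/sand blend; compounds formulated in non-phytotoxic solvent with surfactant, applied as preemergence directed soil spray or postemergence to plants 2–10 cm tall at one- to two-leaf stage. Injury rated visually versus untreated controls after approximately 10 days on a 0 (no effect) to 100 (complete control) scale.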

[1] = preemergence, 31 g ai/ha, scale 0 to 100 (0 no effect, 100 complete control), 13 to 15 days
[2] = preemergence, 62 g ai/ha, 13 to 15 days, scale 0 to 100, 0 = no effect, 100 = complete control
[3] = preemergence, 125 g ai/ha, scale 0 to 100, 0 is no effect, 100 is complete control
[4] = postemergence, 250 g ai/ha, scale 0 to 100 (0 no effect, 100 complete control)
[5] = postemergence, 125 g ai/ha, scale 0 to 100, 0 no effect, 100 complete control
[6] = 250 g ai/ha, scale 0 to 100 (0 no effect, 100 complete control)
[7] = Preemergence, 31 g ai/ha, scale 0 to 100
[8] = Preemergence, 62 g ai/ha, scale 0 to 100
[9] = Preemergence, 125 g ai/ha, scale 0 to 100
[10] = preemergence, 8 g ai/ha, scale 0 to 100, 100 is complete control
[11] = preemergence, 16 g ai/ha, scale 0 to 100, 100 is complete control
[12] = Preemergence, 250 g ai/ha, scale 0 to 100
[13] = Postemergence, 500 g ai/ha, 0 to 100 scale (0 no effect, 100 complete control)
[14] = postemergence, 125 g ai/ha, about 10 days, visual rating on 0 to 100 scale (0 no effect, 100 complete control)
[15] = postemergence, 62 g ai/ha, scale 0 to 100, 0 no effect, 100 complete control
[16] = 125 g ai/ha, scale 0 to 100, 0 no effect, 100 complete control

Cc1cc(C(=O)NCC(F)(F)F)nn1Cc1ccnc(C(F)(F)F)c1 [Compound 74]
Plant response rating (scale of 0 to 100), Oat, Wild (oat, wild; Preemergence, 250 g ai/ha): 95
Oat, Wild plant response rating (oat, wild; [1]): 0
Plant response rating, Oat, Wild (oat, wild; [2]): 40
Oat, Wild plant response rating (oat, wild; [3]): 85
Plant response rating (scale of 0 to 100), Bromegrass, Downy (bromegrass, downy; Preemergence, 250 g ai/ha): 95
Bromegrass, Downy plant response rating (bromegrass, downy; [1]): 0
Plant response rating, Bromegrass, Downy (bromegrass, downy; [2]): 5
Bromegrass, Downy plant response rating (bromegrass, downy; [3]): 50
Plant response rating (scale of 0 to 100), Bermudagrass (bermudagrass; Preemergence, 250 g ai/ha): 98
Bermudagrass plant response rating (bermudagrass; [1]): 50
Plant response rating, Bermudagrass (bermudagrass; [2]): 90
Bermudagrass plant response rating (bermudagrass; [3]): 98
Cocklebur plant response rating (cocklebur; Postemergence, 31 g ai/ha): 20
Cocklebur plant response rating (cocklebur; postemergence, 62 g ai/ha): 20
Plant response rating, Cocklebur (cocklebur; [4]): 55
Plant response rating, Cocklebur (cocklebur; [5]): 50
Plant response rating, Barley (barley; [6]): 5

CCc1cc(-c2ccc(C(F)(F)F)cc2)nn1Cc1ccnc(C(F)(F)F)c1 [Compound 110]
Plant response rating, Green Foxtail (green foxtail; [7]): 75
Plant response rating, Green Foxtail (green foxtail; [8]): 100
Plant response rating, Green Foxtail (green foxtail; [9]): 100
Plant response rating, Green Foxtail (green foxtail; [10]): 25
Plant response rating, Green Foxtail (green foxtail; [11]): 30
Plant response rating, Italian Ryegrass (Italian ryegrass; [7]): 20
Plant response rating, Italian Ryegrass (Italian ryegrass; [8]): 20
Plant response rating, Italian Ryegrass (Italian ryegrass; [9]): 60
Plant response rating, Italian Ryegrass (Italian ryegrass; [10]): 0
Plant response rating, Italian Ryegrass (Italian ryegrass; [11]): 0
Plant response rating, Morningglory (morningglory; [7]): 10
Plant response rating, Morningglory (morningglory; [8]): 10
Plant response rating, Morningglory (morningglory; [9]): 60
Plant response rating, Morningglory (morningglory; [10]): 0
Plant response rating, Morningglory (morningglory; [11]): 20

CCc1cc(C(=O)NCC(F)(F)F)nn1Cc1ccnc(Br)c1 [Compound 224]
Plant response rating, Green Foxtail (green foxtail; [8]): 35
Plant response rating, Green Foxtail (green foxtail; [9]): 70
Plant response rating, Green Foxtail (green foxtail; [12]): 95
Plant response rating, Italian Ryegrass (Italian ryegrass; [8]): 20
Plant response rating, Italian Ryegrass (Italian ryegrass; [9]): 0
Plant response rating, Italian Ryegrass (Italian ryegrass; [12]): 60
Plant response rating, Morningglory (morningglory; [8]): 0
Plant response rating, Morningglory (morningglory; [9]): 0
Plant response rating, Morningglory (morningglory; [12]): 25

CCc1cc(C(=O)NOC(C)C)nn1Cc1ccnc(OC(F)F)c1 [Compound 126]
Common Ragweed plant response rating (common ragweed; [13]): 80
Common Ragweed plant response rating (common ragweed; [14]): 80

CCOc1cc(C(=O)NCC(F)(F)F)nn1Cc1ccnc(OC(F)F)c1 [Compound 128]
Common Ragweed plant response rating (common ragweed; [13]): 70
Common Ragweed plant response rating (common ragweed; [14]): 30

CCCNC(=O)c1cc(OCC)n(Cc2ccnc(OC(F)F)c2)n1 [Compound 136]
Common Ragweed plant response rating (common ragweed; [13]): 100
Common Ragweed plant response rating (common ragweed; [14]): 30

CCCNC(=O)c1cc(CC)n(Cc2cccc(OC(F)(F)F)c2)n1 [Compound 27]
Cocklebur plant response rating (cocklebur; Postemergence, 31 g ai/ha): 20
Plant response rating, Cocklebur (cocklebur; [4]): 40
Plant response rating, Cocklebur (cocklebur; [15]): 25
Plant response rating, Cocklebur (cocklebur; [5]): 35
Plant response rating, Barley (barley; [16]): 20
Plant response rating, Barley (barley; [6]): 30

CCc1cc(C(=O)NCC(F)(F)F)nn1Cc1cccc(OC(F)(F)F)c1 [Compound 20]
Cocklebur plant response rating (cocklebur; Postemergence, 31 g ai/ha): 20
Plant response rating, Cocklebur (cocklebur; [4]): 40
Plant response rating, Cocklebur (cocklebur; [15]): 35
Plant response rating, Cocklebur (cocklebur; [5]): 35
Plant response rating, Barley (barley; [16]): 30
Plant response rating, Barley (barley; [6]): 30

CCCc1cc(C(=O)NCC(F)(F)F)nn1Cc1ccnc(OC(F)F)c1 [Compound 127]
Common Ragweed plant response rating (common ragweed; [13]): 80
Common Ragweed plant response rating (common ragweed; [14]): 30

CCCc1cc(C(=O)NC2CC2)nn1Cc1ccnc(OC(F)F)c1 [Compound 205]
Common Ragweed plant response rating (common ragweed; [13]): 90
Common Ragweed plant response rating (common ragweed; [14]): 80

CCCc1cc(C(=O)NC(C)C)nn1Cc1cc(C(F)(F)F)nn1C [Compound 201]
Plant response rating, Green Foxtail (green foxtail; [8]): 40
Plant response rating, Green Foxtail (green foxtail; [9]): 75
Plant response rating, Green Foxtail (green foxtail; [12]): 80
Plant response rating, Green Foxtail (green foxtail; [11]): 0
Plant response rating, Italian Ryegrass (Italian ryegrass; [8]): 30
Plant response rating, Italian Ryegrass (Italian ryegrass; [9]): 75
Plant response rating, Italian Ryegrass (Italian ryegrass; [12]): 75
Plant response rating, Italian Ryegrass (Italian ryegrass; [11]): 0
Plant response rating, Morningglory (morningglory; Preemergence, 16 g ai/ha, scale 0 to 100): 0
Plant response rating, Morningglory (morningglory; [8]): 25
Plant response rating, Morningglory (morningglory; [9]): 65
Plant response rating, Morningglory (morningglory; [12]): 80
Plant response rating, Morningglory (morningglory; [11]): 0
